{"source": "ChEMBL document CHEMBL4834431", "about": "“Design of Dimeric Bile Acid Derivatives as Potent and Selective Human NTCP Inhibitors” (J Med Chem, 2021)", "key": {"Hepatitis B virus": {"system": "Hepatitis B virus", "test": "Antiviral activity against HBV infected in human HepG2-NTCP cells assessed as reduction in HBeAg secretion incubated for 24 hrs followed replacement with fresh medium and measured at day 5 post infection by ELISA", "assay_type": "functional, organism-based"}, "[1]": {"test": "Stability in mouse liver microsomes assessed as half life at 1 uM preincubated for 5 mins followed by NADPH addition and measured upto 60 mins by LC-MS analysis", "assay_type": "ADME, Microsome", "conditions": "time 65 min"}, "[2]": {"test": "Stability in mouse liver microsomes assessed as intrinsic clearance at 1 uM preincubated for 5 mins followed by NADPH addition and measured upto 60 mins by LC-MS analysis", "assay_type": "ADME, Microsome", "conditions": "time 65 min, read-out: CLH"}, "[3]": {"biological_target": "T1, Hepatic sodium/bile acid cotransporter (Homo sapiens, UniProt Q14973)", "T1 sequence (Q14973 whole entry)": "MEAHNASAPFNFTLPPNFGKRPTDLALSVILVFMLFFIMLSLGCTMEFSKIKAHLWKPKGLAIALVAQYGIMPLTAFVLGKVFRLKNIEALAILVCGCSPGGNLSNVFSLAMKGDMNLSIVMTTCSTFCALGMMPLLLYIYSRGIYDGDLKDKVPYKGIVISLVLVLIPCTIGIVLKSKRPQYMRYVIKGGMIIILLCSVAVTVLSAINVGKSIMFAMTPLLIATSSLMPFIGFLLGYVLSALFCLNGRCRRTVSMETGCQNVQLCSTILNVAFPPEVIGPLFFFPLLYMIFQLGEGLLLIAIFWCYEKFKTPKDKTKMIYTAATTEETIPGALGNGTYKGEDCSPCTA", "test": "Inhibition of human NTCP-mediated [3H]-TCA uptake expressed in human HepG2 cells in presence of 20 % FBS", "assay_type": "cell-based"}, "[4]": {"biological_target": "T1, Hepatic sodium/bile acid cotransporter", "test": "Inhibition of human NTCP-mediated [3H]-TCA uptake expressed in human HepG2 cells in presence of 50 % FBS", "assay_type": "cell-based"}, "[5]": {"biological_target": "T1, Hepatic sodium/bile acid cotransporter", "test": "Inhibition of human NTCP-mediated [3H]-TCA uptake expressed in human HepG2 cells pretreated for 2 hrs followed by [3H]-TCA addition in absence of FBS", "assay_type": "cell-based"}, "[6]": {"test": "Plasma protein binding in human", "assay_type": "ADME, cell-free", "conditions": "read-out: PPB"}, "[7]": {"test": "Plasma protein binding in mouse", "assay_type": "ADME, cell-free", "conditions": "read-out: PPB"}, "[8]": {"biological_target": "T1, Hepatic sodium/bile acid cotransporter", "test": "Inhibition of human NTCP-mediated [3H]-TCA uptake expressed in human HepG2 cells in presence of human serum", "assay_type": "cell-based"}, "HepG2": {"system": "HepG2", "test": "Inhibition of human NTCP-mediated [3H]-TCA uptake expressed in human HepG2 cells in presence of bovine serum", "assay_type": "cell-based", "conditions": "Bos taurus"}, "[9]": {"biological_target": "T2, Hepatic sodium/bile acid cotransporter (Mus musculus, UniProt O08705)", "T2 sequence (O08705 whole entry)": "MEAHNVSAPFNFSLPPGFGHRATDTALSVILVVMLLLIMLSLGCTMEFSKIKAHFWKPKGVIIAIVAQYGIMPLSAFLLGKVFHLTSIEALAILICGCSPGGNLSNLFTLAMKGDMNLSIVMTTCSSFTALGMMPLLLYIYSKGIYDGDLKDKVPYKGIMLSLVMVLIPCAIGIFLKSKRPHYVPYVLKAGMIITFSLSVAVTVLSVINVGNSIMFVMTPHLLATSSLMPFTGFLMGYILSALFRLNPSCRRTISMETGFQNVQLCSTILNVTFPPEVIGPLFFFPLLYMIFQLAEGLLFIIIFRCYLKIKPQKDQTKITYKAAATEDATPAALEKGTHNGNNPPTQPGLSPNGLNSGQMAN", "test": "Inhibition of mouse NTCP-mediated [3H]-TCA uptake expressed in human HepG2 cells in presence of human serum", "assay_type": "cell-based"}, "[10]": {"biological_target": "T2, Hepatic sodium/bile acid cotransporter", "test": "Inhibition of mouse NTCP-mediated [3H]-TCA uptake expressed in human HepG2 cells in presence of mouse serum", "assay_type": "cell-based"}, "[11]": {"test": "Stability in human liver microsomes assessed as half life at 1 uM preincubated for 5 mins followed by NADPH addition and measured upto 60 mins by LC-MS analysis", "assay_type": "ADME, Microsome", "conditions": "time 65 min"}, "[12]": {"test": "Stability in human liver microsomes assessed as intrinsic clearance at 1 uM preincubated for 5 mins followed by NADPH addition and measured upto 60 mins by LC-MS analysis", "assay_type": "ADME, Microsome", "conditions": "time 65 min, read-out: CLH"}, "[13]": {"test": "Half life in ip dosed C57B/L mouse by LC/MS analysis", "assay_type": "ADME, organism-based", "conditions": "in vivo"}, "[14]": {"test": "Bioavailability in ip dosed C57B/L mouse by LC/MS analysis", "assay_type": "ADME, organism-based", "conditions": "in vivo"}, "[15]": {"test": "Oral bioavailability in C57B/L mouse by LC/MS analysis", "assay_type": "ADME, organism-based", "conditions": "in vivo"}, "Mus musculus [16]": {"system": "Mus musculus", "test": "Effect on human NTCP knock-in C57B/L mouse assessed as increase in total bile acid level at 50 mg/kg, ip administered twice daily for 3 days", "assay_type": "functional, organism-based", "conditions": "time 3.0 day"}, "Mus musculus [17]": {"system": "Mus musculus", "test": "Effect on wild-type C57B/L mouse assessed as increase in total bile acid level at 50 mg/kg, ip administered twice daily for 3 days", "assay_type": "functional, organism-based", "conditions": "time 3.0 day"}, "[18]": {"test": "Toxicity in C57B/L mouse assessed as effect on ALT level at 50 mg/kg, ip administered twice daily for 3 days", "assay_type": "organism-based", "conditions": "in vivo, 72 h, time 3 day"}, "[19]": {"test": "Toxicity in C57B/L mouse assessed as effect on body weight at 50 mg/kg, ip administered twice daily for 3 days", "assay_type": "organism-based", "conditions": "in vivo, 72 h, time 3 day"}}, "note": "Activity calls are given as the source filed them. The calls are words filed in the database; no cut-off is given here.", "data": [{"molecule": "C[C@@H]1CCC(=O)NC(C(=O)NCCS(=O)(=O)O)CNC(=O)CC[C@@H](C)[C@H]2CC[C@H]3[C@@H]4[C@@H](O)C[C@@H]5C[C@@H](CC[C@]5(C)[C@H]4CC[C@]23C)n2cc(nn2)CO[C@@H]2CC[C@@]3(C)[C@@H](C2)C[C@H](O)[C@@H]2[C@@H]3CC[C@]3(C)[C@@H]1CC[C@@H]23", "note": "(stereo partly specified)", "values": [{"measurement": "IC50", "setting": "Hepatitis B virus", "result": 178, "unit": "nM"}, {"measurement": "half-life at 1 µM", "setting": "[1]", "result": 0.929, "unit": "h"}, {"measurement": "microsomal CLint at 1 µM", "setting": "[2]", "result": 12, "unit": "µL/min/mg"}, {"measurement": "IC50", "setting": "[3]", "result": 54, "unit": "nM"}, {"measurement": "IC50", "setting": "[4]", "result": 81.5, "unit": "nM"}, {"measurement": "IC50", "setting": "[5]", "result": 23.5, "unit": "nM"}, {"measurement": "fraction unbound", "setting": "[6]", "result": 0.01}, {"measurement": "fraction unbound", "setting": "[7]", "result": 0.01}, {"measurement": "inhibition (INH)", "setting": "[8]", "result": "Active"}, {"measurement": "inhibition", "setting": "HepG2", "result": "Active"}, {"measurement": "inhibition (INH)", "setting": "[9]", "result": "Not Active"}, {"measurement": "inhibition (INH)", "setting": "[10]", "result": "Not Active"}, {"measurement": "half-life at 1 µM", "setting": "[11]", "result": 1.89, "unit": "h"}, {"measurement": "microsomal CLint at 1 µM", "setting": "[12]", "result": 6.1, "unit": "µL/min/mg"}, {"measurement": "half-life", "setting": "[13]", "result": 1.6, "unit": "h"}, {"measurement": "bioavailability", "setting": "[14]", "result": 32, "unit": "%"}, {"measurement": "bioavailability", "setting": "[15]", "result": 1.3, "unit": "%"}, {"measurement": "Activity", "setting": "Mus musculus [16]", "result": "Active"}, {"measurement": "Activity", "setting": "Mus musculus [17]", "result": "inactive"}, {"measurement": "Activity", "setting": "[18]", "result": "Non-Toxic"}, {"measurement": "Activity", "setting": "[19]", "result": "Non-Toxic"}]}]}
